Series [1] concerns the target T1, LepI (Aspergillus flavus, UniProt B8NJH3).
T1 construct: codon-optimized gene in pET-15b (NdeI/XhoI), N-terminal His tag, E. coli BL21(DE3); homodimer; SAM and MTA partly copurify
Kind of series: HPLC assay of retro-Claisen rearrangement of compound […]. The settings on record: read-out: % inhibition at 0.5 mM. In kind it is biochemical.

Series [2] concerns the target T1, LepI. Description: HPLC assay of retro-Claisen rearrangement of compound […], rescue of SAH/MTA inhibition. Type of series: biochemical. The settings on record: 1 mM SI with 1 mM SAH or 1 mM MTA, 300 nM LepI, pH 8.0, 30 °C; SAM analogue, activator.
Series [3] concerns the molecule itself. Kind of series: SEC; analytical gel filtration, Superdex 200 Increase 10/30 GL, protein at 1 mg/mL, 20 mM Na2HPO4, 50 mM NaCl, pH 8.0; sizes by standard protein markers.
Series [4] deals with the molecule itself. Kind of series: crystal structure; LepI crystals grown in 0.15 M bis-Tris pH 7.0, 40% PEG 400; structures with SAM/MTA (1.7 Å), SAH (2.7 Å) and SAM/compound 1 (2.2 Å); two molecules in the asymmetric unit.

“And” between values parts separate entries of the source, which are not always exact repeats. Equal values may be shown once.

The inhibition is how much of the control response was suppressed. For the molecule `CSC[C@H]1O[C@@H](n2cnc3c(N)ncnc32)[C@H](O)[C@@H]1O` [MTA], the inhibition at 500 µM on LepI [1] came to 30%.

With `Nc1ncnc2c1ncn2[C@@H]1O[C@H](C[C@@H](N)CC[C@H](N)C(=O)O)[C@@H](O)[C@H]1O` [Sinefungin], the “HPLC assay of retro-Claisen rearrangement of compound 1, rescue of SAH/MTA inhib” value at LepI [2] was “both SAM and SI completely rescued LepI activity for retro-Claisen rearrangement”.

B1: LepI-Δ15 (domain or fragment, Aspergillus flavus, UniProt B8NJH3 16-387, looked up)
chain: QSTDQFGRAEINDALRELQYSLETPFDTVMRMSLDTCQVAVARIGSDLGLFKHLSQCASPQSAEELADHLGCGRELMSRLLRYMASVRMVQQTDDIKYISSNITQTLAVPGLEAGMRHAFENLWPVLMALPDFLAERKYPDIVDAKDTAFQKAFNTDQDCFHWLATQPTRIANFKVLLTDERTPNFLSTFPLEKELGSWSAEPEKALFVDIGGGMGHACIRLREKYPNQPGRVILQDLPPVLQAAQATLPLSGIESMPHNFHTPQPVQGAKFYFLRLILRDFPDHQALEILQNIVPAMDAESRIVIDDGVPPEKGARWAETGTDICIMSALGSKERTQRQWEELAAKAGLQLQALYQYTWPVVNAAMVFSLQ
notes: LepI of Aspergillus flavus with an N-terminal deletion (Δ15, removes helix α1); N-terminal truncation designed from the structure to disrupt dimerization; also called α1 single deletion of LepI; α1 single deleted enzyme; source: E. coli, purified as described for LepI
As a reminder, the stoichiometry N is the number of molecules, sites or subunits per partner or assembly. B1: the “stoichiometry N” value in series [3] is 2 and 4.

B2: leporin biosynthesis enzyme LepI (enzyme, Aspergillus flavus)
chain: METVAAIKTLIQQLAQSTDQFGRAEINDALRELQYSLETPFDTVMRMSLDTCQVAVARIGSDLGLFKHLSQCASPQSAEELADHLGCGRELMSRLLRYMASVRMVQQTDDIKYISSNITQTLAVPGLEAGMRHAFENLWPVLMALPDFLAERKYPDIVDAKDTAFQKAFNTDQDCFHWLATQPTRIANFKVLLTDERTPNFLSTFPLEKELGSWSAEPEKALFVDIGGGMGHACIRLREKYPNQPGRVILQDLPPVLQAAQATLPLSGIESMPHNFHTPQPVQGAKFYFLRLILRDFPDHQALEILQNIVPAMDAESRIVIDDGVPPEKGARWAETGTDICIMSALGSKERTQRQWEELAAKAGLQLQALYQYTWPVVNAAMVFSLQ
notes: LepI, SAM-dependent enzyme of the leporin biosynthesis gene cluster of Aspergillus flavus; codon-optimized gene in pET-15b between NdeI and XhoI; Homodimer in the asymmetric unit of the crystal; Endogenous SAM and MTA co-purified with the protein; A selenomethionine form was used for phasing; also called wild-type (WT) LepI; native-LepI; source: E. coli BL21 (DE3), purified (Ni resin, …)
On to B2, for which, in series [4], the binding result is given as “binds”.
